Entries after “also recorded” stand apart in the source; their conditions may differ. One block for each compound: values may come before it. Where a SMILES comes first, the peptide text is derived from it. Side-chain parts run from the residue outwards. [ ]: non-standard residue; d: D form. The star is where a group is joined. N(CH2CF3)His = O=C(O)[C@H](Cc1c[nH]cn1)NCC(F)(F)F; Palmitoyl = CCCCCCCCCCCCCCCC(=O)*; βAla = NCCC(=O)O
Columns and labels:
[1] = biological target: T1, DPP4 (Homo sapiens, UniProt P27487); assay: Sensitivity to DPP4: overnight incubation with recombinant DPP4 or vehicle, then receptor agonist bioassay; conditions: for DPP4 degradation / resistance (in words): overnight incubation with or without DPP4, readout at cognate receptor
T1 sequence (P27487 whole entry, species assumed): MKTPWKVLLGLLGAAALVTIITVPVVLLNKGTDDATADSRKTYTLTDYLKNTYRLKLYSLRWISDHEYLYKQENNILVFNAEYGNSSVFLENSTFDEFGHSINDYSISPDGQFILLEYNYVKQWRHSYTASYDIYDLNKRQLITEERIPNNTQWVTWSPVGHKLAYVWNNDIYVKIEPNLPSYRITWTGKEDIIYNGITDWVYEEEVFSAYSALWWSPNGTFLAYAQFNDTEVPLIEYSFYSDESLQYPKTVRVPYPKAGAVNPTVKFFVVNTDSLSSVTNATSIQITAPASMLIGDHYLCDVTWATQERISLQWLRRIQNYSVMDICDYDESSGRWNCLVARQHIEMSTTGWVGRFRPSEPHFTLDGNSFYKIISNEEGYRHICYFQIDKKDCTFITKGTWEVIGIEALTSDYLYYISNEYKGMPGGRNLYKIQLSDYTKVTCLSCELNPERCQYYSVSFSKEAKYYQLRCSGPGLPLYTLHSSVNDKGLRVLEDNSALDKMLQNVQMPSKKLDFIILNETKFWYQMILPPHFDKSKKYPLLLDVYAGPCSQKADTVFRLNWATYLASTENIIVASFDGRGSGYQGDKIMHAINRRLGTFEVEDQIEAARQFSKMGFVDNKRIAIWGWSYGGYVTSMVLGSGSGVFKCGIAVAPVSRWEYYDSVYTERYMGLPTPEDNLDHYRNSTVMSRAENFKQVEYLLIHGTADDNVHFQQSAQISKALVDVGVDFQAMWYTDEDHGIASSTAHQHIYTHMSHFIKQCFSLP
Protocol: Plotting concentration versus the luciferase activity yielded quantitative parameters for combined binding (potency) and signaling (efficacy) in a single step. […] DPP4 treated peptides: 10 μl of 0.26 mM peptide were incubated with 2 μL DPP4 in buffer ±DMSO for 18 hrs. Control peptides: 10 μl of 0.26 mM peptide was added to buffer ±DMSO. The final DMSO concentration was the same for all peptides and all peptides were diluted to 0.26 mM concentrations for the DPP4 assay.
Compounds are incubated overnight at 37° C. in the presence of recombinant DPP4 or vehicle (TRIS buffer). The samples are then assessed in GLP-1R agonist assays.
Compounds were incubated overnight at 37° C. in the presence of recombinant DPP4 or vehicle (TRIS buffer, pH 8.0). The samples were then assessed in GLP1R agonist assays as described elsewhere herein.

[2] = biological target: T1, DPP4; assay: DPP4 degradation of GLP-2 peptides: incubation with recombinant DPP4, then GLP-2R reporter assay; conditions: GLP-2R readout
Protocol: Peptides were incubated with vehicle or recombinant DPP4. Serial dilutions of GLP2-1 and GLP2-4 were then applied to HEK293 cells, which had been transfected with cDNA encoding human GLP-2R and a cAMP-responsive reporter gene.
Peptides were incubated with recombinant DPP4. Serial dilutions of GLP-2 and GLP2-4 were then applied to HEK293 cells, which had been transfected with cDNA encoding human GLP-2R and a cAMP-responsive reporter gene. […] N=4, mean+SEM.
DPP4 resistance (FIG. 13): Lipidated peptides are compared with the prototype, F-GLP2-palm. After an overnight incubation (16 hrs) in the presence vs. the absence of DPP4, receptor mediated function is assessed as shown elsewhere herein. As a DPP4 susceptible control, parallel experiments are done using GLP-2. […] Following overnight preincubation, serial dilutions of ligands were prepared and added to GLP-2R expressing cells for 4 hours. A luciferase reporter gene assay was used to monitor Gαs coupled second messenger signaling.

[3] = Plasma GLP-2R agonist activity 24 h after s.c. injection in mice (luciferase reporter gene assay); format: in vivo; conditions: 1.25 μg s.c., compared with Gattex
Protocol: Clearance of this compound was compared to that of Gattex, an established GLP-2 based drug, Compounds (1.25 μg) were injected subcutaneously (s.c.) in mice. Plasma was collected after 24 h and analyzed by luciferase reporter gene assay for GLP-2R agonist activity.
Compounds (1.25 μg) were injected s.c. in mice. Plasma was collected after 24 h and analyzed by luciferase reporter gene assay for GLP-2R agonist activity.

[4] = tested on: C57BL/6J mice; assay: Intestinal mucosal growth after five daily s.c. injections in C57BL/6J mice; format: in vivo; conditions: s.c. once daily for five days; for intestinal mucosal growth / trophic effect: 25 μg/mouse for villus height; for intestinal weight: sacrificed on day 6, N=6 animals/group
Protocol: C57BL/6J mice were injected s.c. once daily for five days with either vehicle, GLP2-L17K(l1)-4, or Gattex at indicated doses. Animals were sacrificed on day 6, followed by analysis of intestinal tissue.
C57BL/6J mice were injected s.c. once daily for five days with either vehicle, GLP2-L17K [L1]-4 or Gattex at indicated doses. Animals were sacrificed on day 6, followed by measurement of intestinal weight. […] C57BL/6J mice were injected s.c. once daily for five days with either 25 μg of GLP2-L17K [L1]-4 or vehicle. Animals were sacrificed on day 6.

Compound: CC[C@H](C)[C@H](NC(=O)[C@H](C)NC(=O)[C@H](CC(=O)O)NC(=O)[C@H](C)NC(=O)[C@H](Cc1ccc(O)cc1)NCC(F)(F)F)C(=O)N[C@@H](Cc1ccccc1)C(=O)N[C@H](C(=O)N[C@@H](CC(N)=O)C(=O)N[C@@H](CO)C(=O)N[C@@H](Cc1ccc(O)cc1)C(=O)N[C@@H](CCCNC(=N)N)C(=O)N[C@@H](CCCCN)C(=O)N[C@H](C(=O)N[C@@H](CC(C)C)C(=O)NCC(=O)N[C@@H](CCC(N)=O)C(=O)N[C@@H](CC(C)C)C(=O)N[C@@H](CO)C(=O)N[C@@H](C)C(=O)N[C@@H](CCCNC(=N)N)C(=O)N[C@@H](CCCCN)C(=O)N[C@@H](CC(C)C)C(=O)N[C@@H](CC(C)C)C(=O)N[C@@H](CCC(N)=O)C(=O)N[C@@H](CC(=O)O)C(=O)N[C@H](C(=O)N[C@@H](CCSC)C(=O)N[C@@H](CO)C(=O)N[C@@H](CCCNC(=N)N)C(N)=O)[C@@H](C)CC)C(C)C)[C@@H](C)O [GH29-4]
DPP4 degradation / resistance (in words) [1]: resistant to enzyme induced potency loss

Compound: CC[C@H](C)[C@H](NC(=O)[C@H](Cc1ccccc1)NC(=O)[C@H](CC(=O)O)NC(=O)[C@H](CCCNC(=N)N)NC(=O)[C@H](C)NC(=O)[C@H](C)NC(=O)[C@H](CC(C)C)NC(=O)[C@H](CC(N)=O)NC(=O)[C@H](CC(=O)O)NC(=O)[C@H](CC(C)C)NC(=O)[C@@H](NC(=O)[C@@H](NC(=O)[C@H](CC(N)=O)NC(=O)[C@H](CCSC)NC(=O)[C@H](CCC(=O)O)NC(=O)[C@H](CC(=O)O)NC(=O)[C@H](CO)NC(=O)[C@H](Cc1ccccc1)NC(=O)[C@H](CO)NC(=O)CNC(=O)[C@H](CC(=O)O)NC(=O)[C@H](C)NC(=O)[C@H](Cc1c[nH]cn1)NCC(F)(F)F)[C@@H](C)O)[C@@H](C)CC)C(=O)N[C@@H](CC(N)=O)C(=O)N[C@@H](Cc1c[nH]c2ccccc12)C(=O)N[C@@H](CC(C)C)C(=O)N[C@H](C(=O)N[C@@H](CCC(N)=O)C(=O)N[C@H](C(=O)N[C@@H](CCCCN)C(=O)N[C@H](C(=O)N[C@H](C(=O)N[C@@H](CC(=O)O)C(=O)O)[C@@H](C)O)[C@@H](C)CC)[C@@H](C)O)[C@@H](C)CC [GLP2-4]
DPP4 degradation / resistance (in words) [2]: no potency loss; also recorded: completely resistant to degradation | DPP4 degradation / resistance (in words) ([2]; listed as GLP-2-4): no potency loss

Compound: CCCCCCCCCCCCCCCC(=O)NCCC(=O)NCCCC[C@H](NC(=O)[C@H](CC(N)=O)NC(=O)[C@H](CC(=O)O)NC(=O)[C@H](CC(C)C)NC(=O)[C@@H](NC(=O)[C@@H](NC(=O)[C@H](CC(N)=O)NC(=O)[C@H](CCSC)NC(=O)[C@H](CCC(=O)O)NC(=O)[C@H](CC(=O)O)NC(=O)[C@H](CO)NC(=O)[C@H](Cc1ccccc1)NC(=O)[C@H](CO)NC(=O)CNC(=O)[C@H](CC(=O)O)NC(=O)[C@H](C)NC(=O)[C@H](Cc1c[nH]cn1)NCC(F)(F)F)[C@@H](C)O)[C@@H](C)CC)C(=O)N[C@@H](C)C(=O)N[C@@H](C)C(=O)N[C@@H](CCCNC(=N)N)C(=O)N[C@@H](CC(=O)O)C(=O)N[C@@H](Cc1ccccc1)C(=O)N[C@H](C(=O)N[C@@H](CC(N)=O)C(=O)N[C@@H](Cc1c[nH]c2ccccc12)C(=O)N[C@@H](CC(C)C)C(=O)N[C@H](C(=O)N[C@@H](CCC(N)=O)C(=O)N[C@H](C(=O)N[C@@H](CCCCN)C(=O)N[C@H](C(=O)N[C@H](C(=O)N[C@@H](CC(=O)O)C(=O)O)[C@@H](C)O)[C@@H](C)CC)[C@@H](C)O)[C@@H](C)CC)[C@@H](C)CC [GLP2-L17K(l1)-4] (H-[N(CH2CF3)His]ADGSFSDEMNTILDNK([βAla-Palmitoyl])AARDFINWLIQTKITD-OH; N-terminus and C-terminus assumed)
DPP4 degradation / resistance (in words) [2]: refractory to DPP4 degradation | DPP4 degradation / resistance (in words) ([2]; listed as F-GLP2-palm): protease (DPP4) resistant | bioactivity in plasma 24 h after injection [3]: extended bioactivity in vivo | bioactivity in plasma 24 h after injection ([3]; listed as GLP2-L17K [L1]-4): remains at high levels in the circulation | intestinal mucosal growth / trophic effect [4]: induces intestinal mucosal growth | intestinal mucosal growth / trophic effect ([4]; listed as GLP2-L17K [L1]-4): trophic effect on the intestinal mucosa | intestinal weight [4]: enhances intestinal weight | intestinal weight ([4]; listed as GLP2-L17K [L1]-4): increased intestinal weight in a dose dependent manner

Compound: CC[C@H](C)[C@H](NC(=O)[C@H](Cc1ccccc1)NC(=O)[C@H](CCC(=O)O)NC(=O)[C@H](CCCCN)NC(=O)[C@H](C)NC(=O)[C@H](C)NC(=O)[C@H](CCC(N)=O)NC(=O)CNC(=O)[C@H](CCC(=O)O)NC(=O)[C@H](CC(C)C)NC(=O)[C@H](Cc1ccc(O)cc1)NC(=O)[C@H](CO)NC(=O)[C@H](CO)NC(=O)[C@@H](NC(=O)[C@H](CC(=O)O)NC(=O)[C@H](CO)NC(=O)[C@@H](NC(=O)[C@H](Cc1ccccc1)NC(=O)[C@@H](NC(=O)CNC(=O)[C@H](CCC(=O)O)NC(=O)[C@H](C)NC(=O)[C@H](Cc1c[nH]cn1)NCc1ccccc1)[C@@H](C)O)[C@@H](C)O)C(C)C)C(=O)N[C@@H](C)C(=O)N[C@@H](Cc1c[nH]c2ccccc12)C(=O)N[C@@H](CC(C)C)C(=O)N[C@H](C(=O)N[C@@H](CCCCN)C(=O)NCC(=O)N[C@@H](CCCNC(=N)N)C(N)=O)C(C)C [benzyl]
DPP4 degradation / resistance (in words) [1]: virtually complete DPP4 resistance

Compound: CCCCCCCCCCCCCCCC(=O)N[C@@H](CCC(=O)NCCCC[C@H](NC(=O)[C@H](C)NC(=O)[C@H](C)NC(=O)[C@H](CCC(N)=O)NC(=O)CNC(=O)[C@H](CCC(=O)O)NC(=O)[C@H](CC(C)C)NC(=O)[C@H](Cc1ccc(O)cc1)NC(=O)[C@H](CO)NC(=O)[C@H](CO)NC(=O)[C@@H](NC(=O)[C@H](CC(=O)O)NC(=O)[C@H](CO)NC(=O)[C@@H](NC(=O)[C@H](Cc1ccccc1)NC(=O)[C@@H](NC(=O)CNC(=O)[C@H](CCC(=O)O)NC(=O)[C@H](C)NC(=O)[C@@H](N)Cc1cnc[nH]1)[C@@H](C)O)[C@@H](C)O)C(C)C)C(=O)N[C@@H](CCC(=O)O)C(=O)N[C@@H](Cc1ccccc1)C(=O)N[C@H](C(=O)N[C@@H](C)C(=O)N[C@@H](Cc1c[nH]c2ccccc12)C(=O)N[C@@H](CC(C)C)C(=O)N[C@H](C(=O)N[C@@H](CCCNC(=N)N)C(=O)NCC(=O)N[C@@H](CCCNC(=N)N)C(=O)NCC(=O)O)C(C)C)[C@@H](C)CC)C(=O)O [liraglutide]
potency loss after incubation with DPP4 ([1]; overnight incubation with the enzyme, GLP-1R readout): > 50 fold

Compound: Glucagon
DPP4 degradation / resistance (in words) [1]: degraded by DPP4

Next, values leading:

DPP4 degradation / resistance (in words) [1]: virtually complete DPP4 resistance
Compound: CC[C@H](C)[C@H](NC(=O)[C@H](Cc1ccccc1)NC(=O)[C@H](CCC(=O)O)NC(=O)[C@H](CCCCN)NC(=O)[C@H](C)NC(=O)[C@H](C)NC(=O)[C@H](CCC(N)=O)NC(=O)CNC(=O)[C@H](CCC(=O)O)NC(=O)[C@H](CC(C)C)NC(=O)[C@H](Cc1ccc(O)cc1)NC(=O)[C@H](CO)NC(=O)[C@H](CO)NC(=O)[C@@H](NC(=O)[C@H](CC(=O)O)NC(=O)[C@H](CO)NC(=O)[C@@H](NC(=O)[C@H](Cc1ccccc1)NC(=O)[C@@H](NC(=O)CNC(=O)[C@H](CCC(=O)O)NC(=O)[C@H](C)NC(=O)[C@H](Cc1c[nH]cn1)NCC(C)C)[C@@H](C)O)[C@@H](C)O)C(C)C)C(=O)N[C@@H](C)C(=O)N[C@@H](Cc1c[nH]c2ccccc12)C(=O)N[C@@H](CC(C)C)C(=O)N[C@H](C(=O)N[C@@H](CCCCN)C(=O)NCC(=O)N[C@@H](CCCNC(=N)N)C(N)=O)C(C)C [G-6, isobutyl GLP-1]

DPP4 degradation / resistance (in words) [1]: stability against DPP4
Compound: CC[C@H](C)[C@H](NC(=O)[C@H](Cc1ccccc1)NC(=O)[C@H](CCC(=O)O)NC(=O)[C@H](CCCCN)NC(=O)[C@H](C)NC(=O)[C@H](C)NC(=O)[C@H](CCC(N)=O)NC(=O)CNC(=O)[C@H](CCC(=O)O)NC(=O)[C@H](CC(C)C)NC(=O)[C@H](Cc1ccc(O)cc1)NC(=O)[C@H](CO)NC(=O)[C@H](CO)NC(=O)[C@@H](NC(=O)[C@H](CC(=O)O)NC(=O)[C@H](CO)NC(=O)[C@@H](NC(=O)[C@H](Cc1ccccc1)NC(=O)[C@@H](NC(=O)CNC(=O)[C@H](CCC(=O)O)NC(=O)[C@H](C)NC(=O)[C@H](Cc1c[nH]cn1)NC(C)=O)[C@@H](C)O)[C@@H](C)O)C(C)C)C(=O)N[C@@H](C)C(=O)N[C@@H](Cc1c[nH]c2ccccc12)C(=O)N[C@@H](CC(C)C)C(=O)N[C@H](C(=O)N[C@@H](CCCCN)C(=O)NCC(=O)N[C@@H](CCCNC(=N)N)C(N)=O)C(C)C [GLP-1b]

— patent US20190055279A1, “NOVEL POLYPEPTIDES WITH IMPROVED PROTEOLYTIC STABILITY, AND METHODS OF PREPARING AND USING SAME” (TUFTS UNIVERSITY, priority 2015, published 2019)
